Reference: patent US20190021989A1, “GALENIC FORMULATION COMPRISING A TOPICAL DRUG” (NOVARTIS AG, priority 2015, published 2019)

Target: T1, TLR7 (Homo sapiens, UniProt Q9NYK1)
T1 sequence (Q9NYK1 27-1049): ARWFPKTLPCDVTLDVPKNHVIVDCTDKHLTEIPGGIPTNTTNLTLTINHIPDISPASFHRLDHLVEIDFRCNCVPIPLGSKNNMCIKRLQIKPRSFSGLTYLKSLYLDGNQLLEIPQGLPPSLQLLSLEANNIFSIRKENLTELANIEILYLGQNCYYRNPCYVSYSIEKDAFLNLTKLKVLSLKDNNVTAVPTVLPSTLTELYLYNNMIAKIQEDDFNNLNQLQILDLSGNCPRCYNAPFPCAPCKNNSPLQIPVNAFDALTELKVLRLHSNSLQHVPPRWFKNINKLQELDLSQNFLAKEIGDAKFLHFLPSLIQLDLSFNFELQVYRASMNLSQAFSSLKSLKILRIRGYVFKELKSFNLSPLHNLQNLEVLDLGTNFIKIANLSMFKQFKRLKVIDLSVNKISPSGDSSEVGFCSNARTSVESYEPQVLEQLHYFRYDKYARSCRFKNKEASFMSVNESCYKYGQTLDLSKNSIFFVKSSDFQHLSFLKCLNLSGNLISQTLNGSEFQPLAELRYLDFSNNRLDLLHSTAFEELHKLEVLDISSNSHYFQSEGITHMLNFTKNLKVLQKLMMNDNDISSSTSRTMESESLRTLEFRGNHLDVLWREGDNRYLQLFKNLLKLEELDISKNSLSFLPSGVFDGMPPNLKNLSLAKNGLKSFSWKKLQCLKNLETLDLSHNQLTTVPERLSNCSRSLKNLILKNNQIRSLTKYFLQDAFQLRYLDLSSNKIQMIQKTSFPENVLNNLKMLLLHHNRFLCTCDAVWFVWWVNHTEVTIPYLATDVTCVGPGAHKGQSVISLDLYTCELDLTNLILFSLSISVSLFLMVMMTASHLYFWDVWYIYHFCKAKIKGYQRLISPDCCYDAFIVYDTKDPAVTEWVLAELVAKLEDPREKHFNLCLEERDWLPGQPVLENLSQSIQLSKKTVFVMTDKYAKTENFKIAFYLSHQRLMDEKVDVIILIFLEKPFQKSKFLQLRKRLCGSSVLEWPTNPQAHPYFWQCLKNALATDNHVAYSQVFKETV
Assay: TLR7 agonist potency compared with Aldara
Conditions: more potent than Aldara

Compound: Cc1ccc2c(c1)nc(N)c1ncc(CCc3ccc(OCCC(C)C)cc3C)cc12 [compound of formula (II)]
- TLR7 agonist potency relative to Aldara: about 100 times
